Molecules are shown by their SMILES.

Consider 4 compounds from article PMC4806471, “Oral proteasome inhibitor with strong preclinical efficacy in myeloma models” (BMC Cancer, 2016).

One data set concerns proteasome CT-L activity. Put plainly: Binding kinetics: CT-L activity in RPMI8226 cells at different time points after 1-h pulse treatment. Conditions: CT-L activity in RPMI8226 cells after 1-h pulse treatment. It is filed as cell-based, human.
Another data set deals with T1, 20S proteasome T-L, β2 (Homo sapiens, UniProt Q99436).
T1 sequence (Q99436 44-277): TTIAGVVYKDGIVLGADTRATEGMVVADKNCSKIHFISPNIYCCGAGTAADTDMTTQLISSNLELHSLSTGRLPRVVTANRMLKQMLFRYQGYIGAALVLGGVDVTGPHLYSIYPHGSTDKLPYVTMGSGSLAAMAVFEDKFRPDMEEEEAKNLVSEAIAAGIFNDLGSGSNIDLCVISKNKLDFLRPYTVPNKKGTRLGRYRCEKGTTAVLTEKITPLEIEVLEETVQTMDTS
Put plainly: In vitro 20S proteasome inhibition in RPMI8226 cell lysate, Z-Ala-Arg-Arg-AMC substrate. It is filed as biochemical. Conditions: RPMI8226 cellular lysates, 1 h at 37 °C. The procedure:
(§1) Pomalidomide was purchased from Tokyo Chemical Industry.
(§2) RPMI8226 cell lysate was used for the in vitro proteasome inhibition assay. Cells were washed with PBS and resuspended in 20 mM Tris–HCl, pH 7.5. Then, cells were lysed on ice by dounce homogenization and the supernatants were collected by centrifugation. The assay was conducted in 96-well plates by incubating 2 μg of lysates with serial dilutions of a test compound and 20 μM of substrate at 37 °C for 1 h. After incubation, production of hydrolyzed AMC groups was measured using a FlexStation II Fluorometer (Molecular Devices) or using a Spectra MAX Gemini Fluorometer (Molecular Devices) with an excitation filter of 380 nm and an emission filter of 460 nm.

Data set [1] can be described thus: Cytotoxicity in normal PBMC from healthy donors (CellTiter-Glo). It is filed as cell-based. Conditions: human, 10,000 nM, read-out: Viability of normal PBMC at highest concentration tested. As for the experimental part: (§3) Primary MM cells were retrieved from bone marrow of patients and were enriched by Ficoll density centrifugation to a purity of >90 %, as necessary. Purity was assessed by cytomorphology on stained samples. CD138^+ cells were collected using magnetic beads (Miltenyi Biotec) and plated at a density of 8 × 10^4 cells per well onto 96-well plates in RPMI-1640 (WELGENE) containing 10 % FBS (WELGENE), 1 % penicillin-streptomycin-amphotericin B (Gibco), and 2 mM L-glutamine. Cells were then treated with a serial dilution of compound in medium containing a final concentration of 0.2 % DMSO. Cultures were incubated for 48 h and cells were then assayed for viability using the CellTiter-Glo Luminescent Cell Viability Assay kit (Promega).
Peripheral blood mononuclear cells (PBMCs) isolated from the heparinized blood samples of normal healthy donors were also plated and processed as described above.
Background: Cellular ATP, detected with luciferase, serves as a proxy for viable cell number.

Another data set concerns the target T2, 20S proteasome C-L, β1 (Homo sapiens, UniProt P28072+Q99436).
T2 construct: endogenous in cells; host or cells: RPMI8226 (human multiple myeloma)
Put plainly: In vitro 20S proteasome inhibition in RPMI8226 cell lysate, Z-Leu-Leu-Glu-AMC substrate. It is filed as biochemical. Conditions: RPMI8226 cellular lysates, 1 h at 37 °C. As for the experimental part:
as §1, §2

The subject of data set [2] is CD138+ cells from bone marrow of MM patients. Put plainly: Viability of primary myeloma cells from MM patients (CellTiter-Glo). It is filed as cell-based, human. Conditions: patient 14 sample (bortezomib- and ixazomib-refractory), 48 h, % over DMSO control. The procedure: as §3
Data set [3] concerns MM.1S xenografts. Put plainly: Anti-tumor activity of repeat oral dosing in MM.1S xenograft model. Conditions: 5 mg/kg oral twice a week. It is filed as in vivo, mice. The procedure: (§4) In vivo efficacy studies were performed in female BALB/c nude mice (8 weeks old) purchased from ORIENT Bio or female NOD.SCID mice (11–13 weeks old) purchased from HFK Bioscience. The animals were housed and maintained in a controlled environment including a 12 h light and 12 h dark cycle with automatic timers and received food and water ad libitum. All experiments were done under protocols approved by the Institutional Animal Care and Use Committee (IACUC). Moribund animals were sacrificed when necessary and animal carcasses were disposed of according to IACUC guidelines.
1 × 10^7 MM.1S tumor cells in 0.1 ml of Dulbecco’s Phosphate-Buffered Saline (1:1 matrigel) were implanted subcutaneously into the right flank of female athymic nude mice. Tumor growth was monitored with calipers and mice were divided into homogeneous cohorts according to their initial tumor volume. […] The compounds were formulated in 0.5 % methyl cellulose and administered at the indicated doses and regimens by oral gavage at a dose volume of 10 mL/kg. For the RPMI8226 model, a total of 1 × 10^7 cells in 0.2 ml of PBS (1:1 matrigel) were implanted subcutaneously into the hind flank of female NOD.SCID mice. Whole blood was collected by cardiac puncture into tubes containing sodium heparin and cells were harvested by centrifugation. Blood cell pellets and tumor tissues were homogenized in lysis buffer (50 mM Tris–HCl, pH 8.0, 5 mM EDTA, 150 mM NaCl, 0.5 % Nonidet P-40, 0.5 mM phenylmethylsulfonyl fluoride, and 0.5 mM dithiothreitol) for 30 min at 4 °C. The lysates were centrifuged at 14,000 × g for 30 min, and the supernatants were collected as whole blood cell extracts and tumor cell extracts, respectively, for pharmacodynamic analysis. […] The mean, standard deviation (SD), and standard error of the mean (SEM) were calculated for each experimental group, and statistical analyses were performed using standard two tailed Student’s t-test (significance defined as P ≤ 0.05).

For a further data set, the system named is RPMI8226 xenografts. Put plainly: Anti-tumor activity of repeat dosing in RPMI8226 xenograft model. It is filed as in vivo. Conditions: 5 mg/kg oral, the day after the first treatment, NOD.SCID mice. The procedure: as §4
(§5) 1 × 10^7 MM.1S tumor cells in 0.1 ml of Dulbecco’s Phosphate-Buffered Saline (1:1 matrigel) were implanted subcutaneously into the right flank of female athymic nude mice. Tumor growth was monitored with calipers and mice were divided into homogeneous cohorts according to their initial tumor volume. […] The compounds were formulated in 0.5 % methyl cellulose and administered at the indicated doses and regimens by oral gavage at a dose volume of 10 mL/kg. […] The mean, standard deviation (SD), and standard error of the mean (SEM) were calculated for each experimental group, and statistical analyses were performed using standard two tailed Student’s t-test (significance defined as P ≤ 0.05).

In data set [4] the test system is MM.1S xenografts. Put plainly: MM.1S xenograft study of LC53-0151 with or without pomalidomide. It is filed as in vivo, mice. Conditions: pomalidomide 2.5 mg/kg oral 5 days per week, 3 weeks; not statistically significant. As for the experimental part: as §4
as §5, with “0.05). […]” for “0.05).”

Consider `CC(C)C[C@H](NC(=O)[C@H](Cc1ccccc1)NC(=O)c1cnccn1)B(O)O` [Bortezomib], for which, in the data set on proteasome CT-L activity, the Binding kinetics entry is given as “reversible”.
On the same count and under the same terms, the result for `CC(C)C[C@H](NC(=O)[C@H](CCc1ccccc1)NC(=O)CN1CCOCC1)C(=O)N[C@@H](Cc1ccccc1)C(=O)N[C@@H](CC(C)C)C(=O)[C@@]1(C)CO1` [Carfilzomib] reads “irreversible”.
As usually defined, the IC50 is the concentration that gives 50% inhibition. Consider `CC(C)C[C@H](NC(=O)CNC(=O)c1cc(Cl)ccc1Cl)B(O)O` [Ixazomib], for which the IC50 against 20S proteasome T-L, β2 was over 10000 nM; on 20S proteasome C-L, β1, 6 to 7 nM. In addition, in data set [1], the viability at 48 h, 10000 nM was over 50%. Also, the “Viability at 12.5 nM” value in data set [2] is reported as “did not show any effect on viability”. Moreover, in the data set on MM.1S xenografts [3] (day 8), the “Tumor volume, % of start tumor volume (maximum regression)” value is reported as 36%. The “Tumor growth inhibition compared to vehicle control” value in the data set with MM.1S xenografts [3] (day 15) stood at 72%. Further, in the data set with MM.1S xenografts [3] (day 15), the “Tumor volume, % of start tumor volume” value worked out at 58%. Besides, the “Mortality in efficacy model” value with RPMI8226 xenografts is given as “all 8 mice died or were euthanized”. Besides, in the data set with proteasome CT-L activity, the Binding kinetics entry was “reversible”.
Take `Nc1cccc2c1C(=O)N(C1CCC(=O)NC1=O)C2=O` (stereo not drawn) [pomalidomide, Pomalidomide]: the “Reduction of tumor volume compared to vehicle-treated mice” value in the data set on MM.1S xenografts [4] stood at 10%.
